Experiments:
oilseed rape = assay: Safening oilseed rape using a variety of safening compounds of classes (a) to (f) with herbicides; format: in vivo; details: herbicide Bifenox (with insecticide cypermethrin)
Text: Safening compounds were selected from the list of compounds below. The compounds used are highlighted in bold. • (a) Glucose (GL), hydrolysed starch, sucrose (S), fructose (FR), glycerol (G), glyceraldehydes, erythrose, ribulose, xylulose or arabinose or an ester or glycoside or metabolic equivalent of such a carbohydrate; • (b) an organic acid of the Krebs Tricarboxylic Acid Cycle or a metabolic precursor thereof (including citric (C), succinic (SU), malic, pyruvic, acetic and fumaric acids); • (c) a vitamin or coenzyme, eg thiamine (T), riboflavin (R), pyridoxine (P), pyridoxamine, pyridoxal, nicotinamide (N), folic acid (F), ascorbic acid (AA), Biotin (B) and vitamin B12 (B12) or a precursor thereof including nicotinic acid • (d) a purine or pyrimidine nucleoside, nucleotide or a metabolic precursor thereof, eg adenine, adenosine, thymine, thymidine, cytosine, guanine, guanosine, hypoxanthine, uracil, uridine or inosine, to act as structural precursors for nucleic acid synthesis. • (e) a naturally occurring fat or oil including olive, soya, coconut and corn (Oil) oils; • (f) an amino acid of a type that occurs naturally in plant proteins, eg glycine (GLY), alanine (AL), valine, leucine (LE), isoleucine, serine, threonine (THR), cysteine (CY), methionine (ME), aspartic acid, glutamic acid, glutamine (GLU), asparagine (AS), lysine (LY), hydroxylysine, arginine, histidine, phenylalanine, tyrosine, tryptophan, proline, or hydroxyproline. Statistical Layout: Randomised Complete Block trial, under glasshouse conditions, United Kingdom.

Winter wheat cv Alchemy = assay: Safening of herbicides from addition of auxin/auxin precursor and acetaminophen, winter wheat; details: auxins/precursors 10^-2 Molar, AC 3 g per hectare, 0-9 scale, 0=dead plant
NAVY BEAN cv Mogex [1] = assay: Root nodulation and safening, navy bean, compost of low pH (Example 7.3); details: compost of low pH (5.0-5.5)
Text: (§1) The safener/safening system and the fertiliser were applied to the crops either simultaneously or sequentially.
(§2) Co=100% Cobalt Sulphate (20 g per litre and per hectare). FF1=20 g per litre Cobalt Sulphate (as per Co above) plus “Miracle-Gro” at xl recommended rate (applied at 15 g per 2.5 sq metres). Miracle-Gro contains: 24% N, 4% P, 13% K, plus 0.02% B, 0.03% Cu, 0.19% Fe, 0.05% Mn, 0.001% Mo and 0.03% Zn. FF2=20 g per litre Cobalt Sulphate plus Miracle-Gro at ×2 recommended rate. SAF: at least one from class (f) each at <3 g/l, plus at least one from class (c).
NAVY BEAN cv Mogex. Scored/Counted+28 Days after Spraying. Sown in Compost of low pH (5.0-5.5) on 29 Apr. 2008. Spray Date (VC)=27 May, V1 Date=16 June. Scored/Measured on 11 July. Each treatment represents the mean value of 12 plants, within four replicates. No inoculum applied.

Soybean = assay: Root nodulation and safening, soybean, compost of low pH (Example 7.1)
Text: as §1, §2
Scored/Counted+28 Days After Spraying. Sown in Compost of low pH (5.0-5.5) on 1 May 2008. Spray Date (VC)=4 June, V1 Date=20 June. Scored/Measured on 17 July. […] Seed density approx 110 kg/ha. Soybean treated with standard inoculant at sowing.

NAVY BEAN cv Mogex [2] = assay: Root nodulation and safening, navy bean, compost of normal pH (Example 7.4); details: compost of normal pH (6.5)
Text: as §1, §2
NAVY BEAN cv Mogex. Scored/Counted+28 Days after Spraying. Dates as per Example 7.3 Above, but sown in compost of normal pH (6.5). Each treatment represents the mean value from 12 plants, within four replicates. No inoculum applied.

PEA cv Ragtime [3] = assay: Root nodulation and safening, pea, compost of normal pH (Example 7.6); details: compost of normal pH (6.5)
Text: as §1, §2
PEA—TRIAL 7.6—cv Ragtime. Dates as per Example 7.5 above, but sown in compost of normal pH (6.5). […] No inoculum was applied.

Glycine max (Soybean) = assay: Root nodulation and safening, soybean, compost of normal pH (Example 7.2); details: compost of normal pH (6.5)
Text: as §1, §2
Dates as per Example 7.1 above, but sown in compost of normal pH (6.5). Each treatment represents the mean values for 12 plants, within four replicates. Sowing density 110 kg/ha. Standard inoculant applied at sowing.

PEA cv Ragtime [4] = assay: Root nodulation, rooting and safening, pea, compost of low pH (Examples 7.5 and 7.7)
Text: as §1, §2
PEA—TRIAL 5—cv Ragtime. Scored/Counted+28 Days after Spraying. Sown in Compost of Low pH (5.0-5.5) on 28 Apr. 2008. Spray Date (VC)=26 May, V1 Date=14 June. Scored/Measured on 9 July. […] No inoculum applied.
Sowing details etc as per Example 7.5.

[5] = V1, +28 days after spraying, no inoculum
[6] = Soybean, compost of low pH (5.0-5.5), V1, score 0-9
[7] = compost of low pH (5.0-5.5), V1, score 0-9
[8] = low pH compost, application at V1, 0-9 scale

## Nc1ccccc1C(=O)O [2. AN (Anthranilic Acid)]
Oilseed rape; score 0-9, 0 = Dead, 14 days
  Phytotoxicity (0-9) (0 = Dead) + 14 Days: 8.0
  Vigour (0-9) (0 = Dead) + 14 days: 8.0
Oilseed rape; score 0-9, 0 = Dead, 28 days
  Phytotoxicity (0-9) (0 = Dead) + 28 Days: 8.0
  Vigour (0-9) (0 = Dead) + 28 Days: 8.0
Oilseed rape; score 0-9, 9 = Best Rooting, 28 days
  Rooting (0-9) (9 = Best Rooting) + 28 Days: 8.0

## Nc1ccccc1C(=O)O [Anthranilic acid (AN)]
Winter wheat cv Alchemy; 14 days after spraying
  Phytotoxicity (0-9) (0 = Dead) + 14 Days: 8.0
Winter wheat cv Alchemy; 28 days after spraying
  Phytotoxicity (0-9) (0 = Dead) + 28 Days: 8.0

## O=S(=O)([O-])[O-].[Co+2] [cobalt, Cobalt Sulphate]
NAVY BEAN cv Mogex [1]; [5]
  Nodules Per Plant (V1): 21.0
NAVY BEAN cv Mogex [1]; V1, score 0-9
  Nodulation Score (0-9) (V1): 3.3
  Phyto-Toxicity Score (0-9) (V1): 5.7
  Vigour Score (0-9) (V1): 5.9
NAVY BEAN cv Mogex [1]; VC
  Nodules Per Plant (VC): 23.8
NAVY BEAN cv Mogex [1]; VC, score 0-9
  Nod Score (0-9) (VC): 3.8
Soybean; Soybean, compost of low pH (5.0-5.5), V1, +28 days after spraying, mean of 12 plants
  Nodules Per Plant (V1): 27.3
Soybean; [6]
  Nodulation Score (0-9) (V1): 5.2
  Phyto-Toxicity Score (0-9) (V1): 7.8
  Vigour Score (0-9) (V1): 6.0
Soybean; Soybean, compost of low pH (5.0-5.5), VC, +28 days after spraying
  Nodules Per Plant (VC): 28.8
Soybean; Soybean, compost of low pH (5.0-5.5), VC, score 0-9
  Nod Score (0-9) (VC): 5.4
Soybean; nitrogen fixing crops
  nodulation: increases nodulation
NAVY BEAN cv Mogex [2]; [5]
  Nodules Per Plant (V1): 33.5
NAVY BEAN cv Mogex [2]; V1, score 0-9
  Nodulation Score (0-9) (V1): 5.2
  Phyto-Toxicity Score (0-9) (V1): 7.3
  Vigour Score (0-9) (V1): 7.2
NAVY BEAN cv Mogex [2]; VC
  Nodules Per Plant (VC): 31.8
NAVY BEAN cv Mogex [2]; VC, score 0-9
  Nod Score (0-9) (VC): 5.0
PEA cv Ragtime [3]; V1, no inoculum
  Nodules Per Plant (V1): 16.9
PEA cv Ragtime [3]; V1, score 0-9
  Nodulation Score (0-9) (V1): 5.1
  Phyto-Toxicity Score (0-9) (V1): 6.9
  Vigour Score (0-9) (V1): 6.8
PEA cv Ragtime [3]; VC
  Nodules Per Plant (VC): 17.4
PEA cv Ragtime [3]; VC, score 0-9
  Nod Score (0-9) (VC): 5.2
Glycine max (Soybean); V1, mean of 12 plants
  Nodules Per Plant (V1): 29.8
Glycine max (Soybean); V1, score 0-9
  Nodulation Score (0-9) (V1): 5.5
  Phyto-Toxicity Score (0-9) (V1): 8.0
  Vigour Score (0-9) (V1): 6.5
Glycine max (Soybean); VC
  Nodules Per Plant (VC): 28.0
Glycine max (Soybean); VC, score 0-9
  Nod Score (0-9) (VC): 5.3
PEA cv Ragtime [4]; compost of low pH (5.0-5.5), V1, +28 days after spraying, no inoculum
  Nodules Per Plant (V1): 16.4
PEA cv Ragtime [4]; [7]
  Nodulation Score (0-9) (V1): 5.0
  Phyto-Toxicity Score (0-9) (V1): 5.1
  Vigour Score (0-9) (V1): 5.8
PEA cv Ragtime [4]; compost of low pH (5.0-5.5), VC
  Nodules Per Plant (VC): 18.1
PEA cv Ragtime [4]; compost of low pH (5.0-5.5), VC, score 0-9
  Nod Score (0-9) (VC): 5.3
PEA cv Ragtime [4]; low pH compost, application at V1 (data from Example 7.5)
  Nodules Per Plant (V1): 16.4
PEA cv Ragtime [4]; [8]
  Nodulation Score (0-9) (V1): 5.0
  Phyto-Toxicity Score (0-9) (V1): 5.1
  Rooting Score (0-9) (V1): 4.2

— patent US20120088667A1, “SAFENING AGENT” (priority 2009, published 2012)
